Measurements published in US10131652B2, “Pyrimidinyloxy benzene derivatives as herbicides” (E. I. DU PONT DE NEMOURS AND COMPANY, priority 2014, dated 2018).
Read-outs that look alike come from different tables or passages of the source.

Columns and labels:
Assay in all cases: Test D pre-/postemergence plant response
Format in all cases: in vivo
[1] = test system: Italian ryegrass (Lolium multiflorum); conditions: Lolium multiflorum; for pest or weed control at 16 g/ha: 16 g ai/ha; for pest or weed control at 31 g/ha: 31 g ai/ha; for pest or weed control at 62 g/ha: 62 g ai/ha; for pest or weed control at 125 g/ha: 125 g ai/ha
In short: (§1)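 Visual injury scoring (0–100) at 13 to 15 days in greenhouse. Preemergence sprays on seeded loam/sand; postemergence sprays on 1–4 leaf plants.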

[2] = test system: barnyardgrass (Echinochloa crus-galli); conditions: Echinochloa crus-galli; for pest or weed control at 16 g/ha: 16 g ai/ha; for pest or weed control at 31 g/ha: 31 g ai/ha; for pest or weed control at 62 g/ha: 62 g ai/ha; for pest or weed control at 125 g/ha: 125 g ai/ha
In short: as §1

[3] = test system: blackgrass (Alopecurus myosuroides); conditions: Alopecurus myosuroides; for pest or weed control at 16 g/ha: 16 g ai/ha; for pest or weed control at 31 g/ha: 31 g ai/ha; for pest or weed control at 62 g/ha: 62 g ai/ha; for pest or weed control at 125 g/ha: 125 g ai/ha
In short: as §1

corn (Zea mays) = conditions: Zea mays; for Corn plant response rating (crop injury, 0 = no effect, 100 = complete kill) at 62 g/ha: 62 g ai/ha
In short: as §1

[4] = test system: galium (catchweed bedstraw, Galium aparine); conditions: Galium; for pest or weed control at 16 g/ha: 16 g ai/ha; for pest or weed control at 31 g/ha: 31 g ai/ha; for pest or weed control at 62 g/ha: 62 g ai/ha; for pest or weed control at 125 g/ha: 125 g ai/ha
In short: as §1

[5] = test system: giant foxtail (Setaria faberii); conditions: Setaria faberi; for pest or weed control at 16 g/ha: 16 g ai/ha; for pest or weed control at 31 g/ha: 31 g ai/ha; for pest or weed control at 62 g/ha: 62 g ai/ha; for pest or weed control at 125 g/ha: 125 g ai/ha
In short: as §1

[6] = test system: johnsongrass (Sorghum halepense); conditions: Sorghum halepense; for pest or weed control at 16 g/ha: 16 g ai/ha; for pest or weed control at 31 g/ha: 31 g ai/ha; for pest or weed control at 62 g/ha: 62 g ai/ha; for pest or weed control at 125 g/ha: 125 g ai/ha
In short: as §1

[7] = test system: lambsquarters (Chenopodium album); conditions: Chenopodium album; for pest or weed control at 16 g/ha: 16 g ai/ha; for pest or weed control at 31 g/ha: 31 g ai/ha; for pest or weed control at 62 g/ha: 62 g ai/ha; for pest or weed control at 125 g/ha: 125 g ai/ha
In short: as §1

[8] = test system: large (Lg) crabgrass (Digitaria sanguinalis); conditions: Digitaria sanguinalis; for pest or weed control at 16 g/ha: 16 g ai/ha; for pest or weed control at 31 g/ha: 31 g ai/ha; for pest or weed control at 62 g/ha: 62 g ai/ha; for pest or weed control at 125 g/ha: 125 g ai/ha
In short: as §1

[9] = pre-emergence, Preemergence, scale 0 to 100 (0 no effect, 100 complete control), read-out: Plant response rating, Ryegrass, Italian
[10] = post-emergence, Postemergence, scale 0 to 100, 0 no effect, 100 complete control, read-out: Plant response rating, Barnyardgrass
[11] = pre-emergence, Preemergence, scale 0 to 100 (0 no effect, 100 complete control), read-out: Plant response rating, Barnyardgrass
[12] = post-emergence, Postemergence, scale 0 to 100, 0 no effect, 100 complete control, read-out: Plant response rating, Blackgrass
[13] = pre-emergence, Preemergence, scale 0 to 100 (0 no effect, 100 complete control), read-out: Plant response rating, Blackgrass
[14] = post-emergence, Postemergence, scale 0 to 100, 0 no effect, 100 complete control, read-out: Plant response rating, Galium
[15] = pre-emergence, Preemergence, scale 0 to 100 (0 no effect, 100 complete control), read-out: Plant response rating, Galium
[16] = post-emergence, Postemergence, scale 0 to 100, 0 no effect, 100 complete control, read-out: Plant response rating, Foxtail, Giant
[17] = pre-emergence, Preemergence, scale 0 to 100 (0 no effect, 100 complete control), read-out: Plant response rating, Foxtail, Giant
[18] = post-emergence, Postemergence, scale 0 to 100, 0 no effect, 100 complete control, read-out: Plant response rating, Johnsongrass
[19] = pre-emergence, Preemergence, scale 0 to 100 (0 no effect, 100 complete control), read-out: Plant response rating, Johnsongrass
[20] = pre-emergence, Preemergence, scale 0 to 100 (0 no effect, 100 complete control), read-out: Plant response rating, Lambsquarters
[21] = post-emergence, Postemergence, scale 0 to 100, 0 no effect, 100 complete control, read-out: Plant response rating, Crabgrass, Large
[22] = pre-emergence, Preemergence, scale 0 to 100 (0 no effect, 100 complete control), read-out: Plant response rating, Crabgrass, Large

`FC(F)(F)c1cc(-c2ccccc2Oc2ncc(Cl)cn2)no1` [Compound 200, 5-chloro-2-[2-[5-(trifluoromethyl)-3-isoxazolyl]phenoxy]pyrimidine] gave a pest or weed control at 16 g/ha ([1]; post-emergence, Postemergence, read-out: Plant response rating (scale 0 to 100), Ryegrass, Italian) of 20%, a pest or weed control at 31 g/ha ([1]; post-emergence, Postemergence, scale 0 to 100 (0 no effect, 100 complete control), read-out: Ryegrass, Italian plant response rating) of 25% and a pest or weed control at 62 g/ha ([1]; post-emergence, Postemergence, scale 0 to 100, 0 no effect, 100 complete control, read-out: Ryegrass, Italian plant response rating) of 35%. For the same compound, the pest or weed control at 125 g/ha ([1]; post-emergence, Postemergence, scale 0 to 100, 0 no effect, 100 complete control, read-out: Plant response rating, Ryegrass, Italian) was 35%, the pest or weed control at 125 g/ha ([1]; pre-emergence, Preemergence, read-out: Plant response rating (scale 0 to 100), Ryegrass, Italian) was 90% and the pest or weed control at 16 g/ha [1, 9] was 30%. For the same compound, the pest or weed control at 31 g/ha [1, 9] was 80%, the pest or weed control at 62 g/ha [1, 9] was 85% and the pest or weed control at 16 g/ha ([2]; post-emergence, Postemergence, read-out: Plant response rating (scale 0 to 100), Barnyardgrass) was 5%. The pest or weed control at 31 g/ha ([2]; post-emergence, Postemergence, scale 0 to 100 (0 no effect, 100 complete control), read-out: Barnyardgrass plant response rating) was 10%, the pest or weed control at 62 g/ha [2, 10] was 10% and the pest or weed control at 125 g/ha [2, 10] was 15%. It also gave a pest or weed control at 125 g/ha ([2]; pre-emergence, Preemergence, read-out: Plant response rating (scale 0 to 100), Barnyardgrass) of 100%, a pest or weed control at 16 g/ha [2, 11] of 35% and a pest or weed control at 31 g/ha [2, 11] of 95%. It also gave a pest or weed control at 62 g/ha [2, 11] of 100%, a pest or weed control at 16 g/ha ([3]; post-emergence, Postemergence, read-out: Plant response rating (scale 0 to 100), Blackgrass) of 30% and a pest or weed control at 31 g/ha ([3]; post-emergence, Postemergence, scale 0 to 100 (0 no effect, 100 complete control), read-out: Blackgrass plant response rating) of 30%. It also gave a pest or weed control at 62 g/ha [3, 12] of 40%, a pest or weed control at 125 g/ha [3, 12] of 90% and a pest or weed control at 125 g/ha ([3]; pre-emergence, Preemergence, read-out: Plant response rating (scale 0 to 100), Blackgrass) of 90%. It also gave a pest or weed control at 16 g/ha [3, 13] of 85%, a pest or weed control at 31 g/ha [3, 13] of 90% and a pest or weed control at 62 g/ha [3, 13] of 90%. It also gave a plant injury at 16 g/ha (corn (Zea mays); post-emergence, Postemergence, 16 g ai/ha, read-out: Plant response rating (scale 0 to 100), Corn) of 5%, a plant injury at 31 g/ha (corn (Zea mays); post-emergence, Postemergence, 31 g ai/ha, scale 0 to 100 (0 no effect, 100 complete control), read-out: Corn plant response rating) of 5% and a Corn plant response rating (crop injury, 0 = no effect, 100 = complete kill) at 62 g/ha (corn (Zea mays); post-emergence, Postemergence, scale 0 to 100, 0 no effect, 100 complete control) of 10%. The Corn plant response rating (crop injury, 0 = no effect, 100 = complete kill) at 125 g/ha (corn (Zea mays); post-emergence, Postemergence, 125 g ai/ha, scale 0 to 100, 0 no effect, 100 complete control) was 15%, the plant injury at 125 g/ha (corn (Zea mays); pre-emergence, Preemergence, 125 g ai/ha, read-out: Plant response rating (scale 0 to 100), Corn) was 20% and the Corn plant response rating (crop injury, 0 = no effect, 100 = complete kill) at 16 g/ha (corn (Zea mays); pre-emergence, Preemergence, 16 g ai/ha, scale 0 to 100 (0 no effect, 100 complete control)) was 0%. The Corn plant response rating (crop injury, 0 = no effect, 100 = complete kill) at 31 g/ha (corn (Zea mays); pre-emergence, Preemergence, 31 g ai/ha, scale 0 to 100 (0 no effect, 100 complete control)) was 0%, the Corn plant response rating (crop injury, 0 = no effect, 100 = complete kill) at 62 g/ha (corn (Zea mays); pre-emergence, Preemergence, scale 0 to 100 (0 no effect, 100 complete control)) was 10% and the pest or weed control at 16 g/ha ([4]; post-emergence, Postemergence, read-out: Plant response rating (scale 0 to 100), Galium) was 75%. The pest or weed control at 31 g/ha ([4]; post-emergence, Postemergence, scale 0 to 100 (0 no effect, 100 complete control), read-out: Galium plant response rating) was 100%, the pest or weed control at 62 g/ha [4, 14] was 100% and the pest or weed control at 125 g/ha [4, 14] was 100%. It also gave a pest or weed control at 125 g/ha ([4]; pre-emergence, Preemergence, read-out: Plant response rating (scale 0 to 100), Galium) of 95%, a pest or weed control at 16 g/ha [4, 15] of 85% and a pest or weed control at 31 g/ha [4, 15] of 98%. For the same compound, the pest or weed control at 62 g/ha [4, 15] was 100%, the pest or weed control at 16 g/ha ([5]; post-emergence, Postemergence, read-out: Plant response rating (scale 0 to 100), Foxtail, Giant) was 5% and the pest or weed control at 31 g/ha ([5]; post-emergence, Postemergence, scale 0 to 100 (0 no effect, 100 complete control), read-out: Foxtail, Giant plant response rating) was 20%. The pest or weed control at 62 g/ha [5, 16] was 10%, the pest or weed control at 125 g/ha [5, 16] was 15% and the pest or weed control at 125 g/ha ([5]; pre-emergence, Preemergence, read-out: Plant response rating (scale 0 to 100), Foxtail, Giant) was 100%. For the same compound, the pest or weed control at 16 g/ha [5, 17] was 95%, the pest or weed control at 31 g/ha [5, 17] was 100% and the pest or weed control at 62 g/ha [5, 17] was 100%. For the same compound, the pest or weed control at 16 g/ha ([6]; post-emergence, Postemergence, read-out: Plant response rating (scale 0 to 100), Johnsongrass) was 15%, the pest or weed control at 31 g/ha ([6]; post-emergence, Postemergence, scale 0 to 100 (0 no effect, 100 complete control), read-out: Johnsongrass plant response rating) was 20% and the pest or weed control at 62 g/ha [6, 18] was 45%. It also gave a pest or weed control at 125 g/ha [6, 18] of 40%, a pest or weed control at 125 g/ha ([6]; pre-emergence, Preemergence, read-out: Plant response rating (scale 0 to 100), Johnsongrass) of 100% and a pest or weed control at 16 g/ha [6, 19] of 25%. For the same compound, the pest or weed control at 31 g/ha [6, 19] was 60%, the pest or weed control at 62 g/ha [6, 19] was 85% and the pest or weed control at 16 g/ha ([7]; post-emergence, Postemergence, read-out: Plant response rating (scale 0 to 100), Lambsquarters) was 70%. It also gave a pest or weed control at 31 g/ha ([7]; post-emergence, Postemergence, scale 0 to 100 (0 no effect, 100 complete control), read-out: Lambsquarters plant response rating) of 80%, a pest or weed control at 62 g/ha ([7]; post-emergence, Postemergence, scale 0 to 100, 0 no effect, 100 complete control, read-out: Lambsquarters plant response rating) of 85% and a pest or weed control at 125 g/ha ([7]; post-emergence, Postemergence, scale 0 to 100, 0 no effect, 100 complete control, read-out: Plant response rating, Lambsquarters) of 98%. For the same compound, the pest or weed control at 125 g/ha ([7]; pre-emergence, Preemergence, read-out: Plant response rating (scale 0 to 100), Lambsquarters) was 100%, the pest or weed control at 16 g/ha [7, 20] was 75% and the pest or weed control at 31 g/ha [7, 20] was 98%. The pest or weed control at 62 g/ha [7, 20] was 95%, the pest or weed control at 16 g/ha ([8]; post-emergence, Postemergence, read-out: Plant response rating (scale 0 to 100), Crabgrass, Large) was 10% and the pest or weed control at 31 g/ha ([8]; post-emergence, Postemergence, scale 0 to 100 (0 no effect, 100 complete control), read-out: Crabgrass, Large plant response rating) was 10%. For the same compound, the pest or weed control at 62 g/ha [8, 21] was 25%, the pest or weed control at 125 g/ha [8, 21] was 35% and the pest or weed control at 125 g/ha ([8]; pre-emergence, Preemergence, read-out: Plant response rating (scale 0 to 100), Crabgrass, Large) was 100%. It also gave a pest or weed control at 16 g/ha [8, 22] of 98%, a pest or weed control at 31 g/ha [8, 22] of 100% and a pest or weed control at 62 g/ha [8, 22] of 100%.
